The source of these data is patent US20100041621A1, “METHODS AND COMPOSITIONS FOR IMPROVING COGNITIVE PERFORMANCE” (priority 2008, published 2010).

In experiment [1] the test system is anterior cingulate cortex (ACC). Description: 31P MRSI (3D-CSI, 4 Tesla) of phosphorus metabolites in the anterior cingulate cortex after six weeks of oral citicoline. Format: in vivo, human. The conditions noted are these: 6 weeks, doses pooled, mean ± SD. The source says:
(§1) ^31P data were collected using a three-dimensional chemical shift imaging (3D-CSI) technique at 4 Tesla in healthy middle-aged individuals. The use of 3D-CSI at high field has several advantages over previous methods: 1) increased spectral dispersion, which allows for increased precision of metabolite quantification; 2) post-processing grid shifting that allows for 3D placement of voxels of interest; and 3) the ability to co-register voxel placement between baseline and post-treatment follow-up. High-energy metabolite peaks quantified in the present study include phosphocreatine (PCr), β-nucleoside triphosphate (NTP, ATP in brain), and inorganic phosphate (Pi). Phospholipid membrane metabolite peaks quantified include anabolites, phosphomonoesters (PME), including phosphoethanolamine (PE) and phosphocholine (PC), and catabolites, phosphodiesters (PDE), including glycerophosphoethanolamine (GPE) and glycerolphosphocholine (GPC). A region of interest approach was used to examine phosphorus metabolite levels in the anterior cingulate cortex (ACC), given the notable age-related decline in frontal brain metabolism and impairment of frontally-mediated cognitive functions. A comparison region placed in the parieto-occipital cortex (POC) was also evaluated. It was hypothesized that oral supplementation with citicoline would improve frontal bioenergetic metabolism via elevations in availability of high-energy phosphates, as well as alteration of membrane phospholipid turnover by providing additional membrane precursors.
(§2) Subjects included sixteen neurologically and psychiatrically healthy adults (mean age=47.3±5.4 years; 8 females, 8 males). Trained research technicians administered a structured clinical psychiatric interview using the Structured Clinical Interview for DSM-IV (SCID). All subjects were free of Axis I diagnoses, neurological illness, severe medical problems, and psychoactive substance use.
(§3) Subjects were randomly assigned to receive a six-week supply of either 500 mg (4 males and 4 females) or 2000 mg (4 males and 4 females) of Cognizin® Citicoline (Kyowa Hakko Kogyo Co., Ltd., JAPAN). Subjects were instructed to take one capsule every day (500 mg group) or four capsules every day in a single dose (2000 mg group) for six weeks. […] Magnetic resonance spectroscopy (MRS) was completed on all subjects in two imaging sessions: one prior to beginning treatment (baseline) and one after completing six weeks of treatment.
(§4) All proton imaging was performed using the proton channel of the dual tuned open face proton-phosphorus TEM whole-head coil from Bioengineering Inc. (Minneapolis, Minn.) operating at a nominal frequency of 170.3 MHz. A 2D gradient-recalled echo imaging sequence (12 seconds duration) was used to acquire a single image in all three spatial dimensions (sagittal, coronal, axial) to quickly determine the patient's position and angle. High-contrast, T1-weighted sagittal, coronal images as well as T1 and T2-weighted transverse images of the entire brain were acquired using a three-dimensional, magnetization-prepared FLASH imaging sequence (3D-MP FLASH), allowing for clear segmentation between grey-matter, white-matter, and CSF, as well as clearly delineating between the different anatomical regions of interest. This approach was used to optimize […] voxel positioning, and volumetric correction in the regions of interest.
(§5) Phosphorus MRSI was performed using the phosphorus channel of the dual tuned proton-phosphorus TEM whole-head coil from Bioengineering Inc. (Minneapolis, Minn.) operating at 68.9 MHz. Phosphorus MRSI data were recorded using a three-dimensional chemical shift imaging (3D-CSI) sequence (Garraux, Neuroimage 10:149-162, 1999). […]

Experiment [2] deals with parieto-occipital cortex (POC). The experiment can be described thus: 31P MRSI (3D-CSI, 4 Tesla) of phosphorus metabolites in the parieto-occipital cortex (comparison region) after six weeks of oral citicoline. Format: in vivo, human.
Excerpt: as §1, §2, §3, §4, §5

The test system of experiment [3] is axial brain slice through the frontal and occipital cortices. The conditions noted are these: elderly subjects (69.4±5.6 years), 6 weeks of treatment, 1.5 Tesla; cited from earlier work.
[4] abbreviates: POC, six weeks, at either dose (500 or 2000 mg).

In the case of `C[N+](C)(C)CCOP(=O)(O)OP(=O)([O-])OC[C@H]1O[C@@H](n2ccc(N)nc2=O)[C@H](O)[C@@H]1O` [citicoline, CDP-choline], the “PC, metabolite ratio relative to total 31P signal” value in experiment [1] (baseline .026 ± .010, p .02) was “.019 ± .008”; in experiment [2] (POC, 6 weeks, doses pooled, mean ± SD, baseline .023 ± .009, ns), “.026 ± .012”. Moreover, the “GPE, metabolite ratio relative to total 31P signal” value is recorded as “.030 ± .009” in experiment [1] (baseline .039 ± .010, p .01) and “.032 ± .014” in experiment [2] (POC, 6 weeks, doses pooled, mean ± SD, baseline .034 ± .011, ns). Also, the “PE, metabolite ratio relative to total 31P signal” value in experiment [1] (baseline .043 ± .015, p .04) is recorded as “.054 ± .008”; in experiment [2] (POC, 6 weeks, doses pooled, mean ± SD, baseline .065 ± .009, ns) it was “.058 ± .010”. Moreover, the “GPC, metabolite ratio relative to total 31P signal” value in experiment [1] (baseline .051 ± .015, ns) is reported as “.047 ± .016”; in experiment [2] (POC, 6 weeks, doses pooled, mean ± SD, baseline .047 ± .017, ns) it was “.047 ± .010”. The “β-NTP, metabolite ratio relative to total 31P signal” value was “.075 ± .014” in experiment [1] (baseline .066 ± .012, p .05) and “.066 ± .010” in experiment [2] (POC, 6 weeks, doses pooled, mean ± SD, baseline .063 ± .009, ns). Further, the “PME, metabolite ratio relative to total 31P signal” value in experiment [1] (baseline .069 ± .016, ns) is “.073 ± .012”; in experiment [2] (POC, 6 weeks, doses pooled, mean ± SD, baseline .088 ± .015, ns), “.084 ± .011”. Moreover, the “Pi, metabolite ratio relative to total 31P signal” value in experiment [1] (baseline .073 ± .012, p .15) is “.065 ± .022”; in experiment [2] (POC, 6 weeks, doses pooled, mean ± SD, baseline .072 ± .010, ns), “.075 ± .013”. Moreover, the “change in phospholipid membrane metabolites” value in experiment [2] (POC region of interest, baseline vs six weeks) is “No significant changes”. For the same compound, the “change in PCr/Pi ratio” value in experiment [2] (setting [4]) was “No changes”. Besides, in experiment [2] (setting [4]), the “change in Pi” value is recorded as “No changes”. Also, the “change in phosphodiesters (PDE, phospholipid membrane catabolites)” value in experiment [3] is given as “significant increase”.
